# ChEMBL document CHEMBL1201862, “PubChem BioAssay data set” (2004)
#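 Interpolation was linear, between the two tested concentrations surrounding the appropriate level; five concentrations were tested over 48 hours in 96-well plates. GI50 marks 50% less growth.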 Calls of active or inactive are those of the source. Cut-off read from the data, not from the text of the source: active = GI50 up to about 1.1 µM and inactive = higher.
# Legend:
# Test in all cases: growth of human tumour cells (NCI), 48 h
# SNB-19 = tested on: SNB-19
# K562 = tested on: K562
# RXF 393 = tested on: RXF 393
# NCI-H460 = tested on: NCI-H460
# BT-549 = tested on: BT-549
# SF-539 = tested on: SF-539
# SF-268 = tested on: SF-268
# CCRF-CEM = tested on: CCRF-CEM
# HCT-15 = tested on: HCT-15
# CAKI-1 = tested on: CAKI-1
# A549 = tested on: A549
# HOP-62 = tested on: HOP-62
# T47D = tested on: T47D
# COLO 205 = tested on: COLO 205
# SW-620 = tested on: SW-620
# HOP-92 = tested on: HOP-92
# HCC 2998 = tested on: HCC 2998
# SK-MEL-5 = tested on: SK-MEL-5
# Malme-3M = tested on: Malme-3M
SMILES,GI50 (SNB-19),GI50 (K562),GI50 (RXF 393),GI50 (NCI-H460),GI50 (BT-549),GI50 (SF-539),GI50 (SF-268),GI50 (CCRF-CEM),GI50 (HCT-15) [µM],GI50 (CAKI-1),GI50 (A549),GI50 (HOP-62),GI50 (T47D),GI50 (COLO 205),GI50 (SW-620),GI50 (HOP-92),GI50 (HCC 2998),GI50 (SK-MEL-5),GI50 (Malme-3M)
CCOC(=O)c1cc([N+](=O)[O-])cc([N+](=O)[O-])c1Sc1[nH]cnc2ncnc1-2,19.5 µM (inactive),0.661 µM (active),1.82 µM (inactive),8.81 µM (inactive),2.24 µM (inactive),2.92 µM (inactive),3.32 µM (inactive),0.462 µM (active),4.33,1.85 µM (inactive),14.3 µM (inactive),3.54 µM (inactive),1.2 µM (inactive),2.17 µM (inactive),2.42 µM (inactive),0.771 µM (active),11.9 µM (inactive),5.94 µM (inactive),–
Oc1ccc2c(c1)OCC(O)(c1ccccc1O)C2 (centres undefined),> 100 µM (inactive),> 100 µM (inactive),> 100 µM (inactive),> 100 µM (inactive),> 100 µM (inactive),> 100 µM (inactive),> 100 µM (inactive),> 100 µM (inactive),> 100,> 100 µM (inactive),–,> 100 µM (inactive),> 100 µM (inactive),> 100 µM (inactive),> 100 µM (inactive),> 100 µM (inactive),> 100 µM (inactive),> 100 µM (inactive),–
C=C(C)C1CC2(C)C(C)CC(OC(=O)/C(C)=C\C)CC2C(OC(=O)/C(C)=C\C)C1O (centres undefined),25.1 µM (inactive),> 10 µM (inactive),–,45.1 µM (inactive),62.1 µM (inactive),> 100 µM (inactive),66.4 µM (inactive),20.8 µM (inactive),42,80.7 µM (inactive),39.5 µM (inactive),–,43.2 µM (inactive),22.1 µM (inactive),61 µM (inactive),51.2 µM (inactive),> 100 µM (inactive),15.6 µM (inactive),> 100 µM (inactive)
O=C(O)c1ccc2c(c1)Cc1cc([N+](=O)[O-])ccc1-2,> 100 µM (inactive),73.5 µM (inactive),–,> 100 µM (inactive),> 100 µM (inactive),> 100 µM (inactive),> 100 µM (inactive),21.6 µM (inactive),> 100,71.4 µM (inactive),> 100 µM (inactive),> 100 µM (inactive),> 100 µM (inactive),> 100 µM (inactive),> 100 µM (inactive),30.5 µM (inactive),> 100 µM (inactive),> 100 µM (inactive),> 100 µM (inactive)
CN(C)C1=Nc2ccccc2C(=S)N2CSCC12 (centres undefined),> 100 µM (inactive),12.8 µM (inactive),44.7 µM (inactive),37.8 µM (inactive),78.5 µM (inactive),–,> 100 µM (inactive),16.4 µM (inactive),34,20.9 µM (inactive),> 100 µM (inactive),> 100 µM (inactive),89.5 µM (inactive),22.3 µM (inactive),34.8 µM (inactive),–,> 100 µM (inactive),> 100 µM (inactive),32.7 µM (inactive)
NC(=O)NC(=O)Nc1ccc(Br)cc1,> 11.9 µM (inactive),3.3 µM (inactive),–,> 8.61 µM (inactive),> 20 µM (inactive),> 17.3 µM (inactive),> 6.93 µM (inactive),> 4.65 µM (inactive),28,> 9.38 µM (inactive),> 16.6 µM (inactive),> 15.8 µM (inactive),6.03 µM (inactive),11.3 µM (inactive),> 11.5 µM (inactive),> 100 µM (inactive),> 21.9 µM (inactive),7.67 µM (inactive),> 15.8 µM (inactive)
CCOC(=O)N1c2ccccc2S(=O)(=O)c2ccccc21,> 100 µM (inactive),> 100 µM (inactive),> 100 µM (inactive),> 100 µM (inactive),> 100 µM (inactive),> 100 µM (inactive),> 100 µM (inactive),> 100 µM (inactive),> 100,> 100 µM (inactive),> 100 µM (inactive),> 100 µM (inactive),67.8 µM (inactive),> 100 µM (inactive),> 100 µM (inactive),–,> 100 µM (inactive),> 100 µM (inactive),–
CSc1c(C#N)c2n(c3ccccc3[n+]2C)c2ncccc12,32.6 µM (inactive),37.9 µM (inactive),17.9 µM (inactive),15.7 µM (inactive),28.4 µM (inactive),–,29.4 µM (inactive),24.2 µM (inactive),21.5,21 µM (inactive),12.5 µM (inactive),23.4 µM (inactive),25.8 µM (inactive),13.8 µM (inactive),20.2 µM (inactive),–,30.1 µM (inactive),12.9 µM (inactive),19.4 µM (inactive)
